Measurements taken from PubChem BioAssay AID1549 (Sanford-Burnham Center for Chemical Genomics, 2009).
Activity calls are given as the source filed them. How the calls were made is not given here.

Biological target: Influenza A virus M2 proton channel (A/TW/4845/1999 H1N1)
Assay: M2 proton channel binding, NMR based, influenza A virus H1N1 strain (AID 1549)
Settings: NMR binding screen, M2 protein

| Structure (SMILES) | Kd |
| --- | --- |
| NC(=O)CSc1ncnc2ccccc12 | > 4 mM (inactive) |
| C=CC1=C(C)/C(=C/c2[nH]c(Cc3[nH]c(/C=C4\NC(=O)C(C)=C4C=C)c(C)c3CCC(=O)O)c(CCC(=O)O)c2C)NC1=O | > 4 mM (inactive) |
| Cc1nc(NCc2ccco2)nc2c1C(=O)CC(C)C2 (stereo unspecified) | > 4 mM (inactive) |
| N=Nc1c(O)[nH]c2ccccc12 | > 4 mM (inactive) |
| CCOc1nc(C)ccc1-c1noc(-c2ccco2)n1 | > 4 mM (inactive) |
| NC(=O)C1CCN(C2CC(=O)NC2=O)CC1 (stereo unspecified) | > 4 mM (inactive) |
| Cc1cc(-c2ccccc2)nc2cc(C(N)=O)nn12 | > 4 mM (inactive) |
| C/C1=C\CCC(=O)C2CC(C)(C)C2CC1 (stereo unspecified) | > 4 mM (inactive) |
| Oc1cccc(N2CCOCC2)c1 | > 4 mM (inactive) |
| COC(=O)C[C@@H]1C2(C)C(=O)[C@@H](CC3=C4CC(=O)O[C@@H](c5ccoc5)[C@]4(C)CCC32)[C@H](OC(C)=O)C1(C)C (stereo partly specified) | > 4 mM (inactive) |
| NC(=O)c1cccc2c(=O)oc3ccccc3c12 | > 4 mM (inactive) |
| Cc1cccc(N2C(=O)CCC2=O)n1 | > 4 mM (inactive) |
| O=C1C2C3C=CC(C3)C2C(=O)N1c1cccnc1 (stereo unspecified) | > 4 mM (inactive) |
| O=C(NCO)c1ccc([N+](=O)[O-])cc1 | > 4 mM (inactive) |
| O=C(c1ccco1)N1CCCN(C(=O)c2ccco2)CC1 | > 4 mM (inactive) |
| Cc1ccc(CN2CCN(C(=O)C3CCC3)CC2)cc1 | > 4 mM (inactive) |
